Counter-ions that a name gives are not always drawn. Like-named read-outs stand apart in the source and are kept apart here.
Key:
Format in all cases: biochemical
recombinant human VAP-1 = biological target: T1, recombinant human VAP-1 (Homo sapiens, UniProt Q16853); assay: Activity evaluation on recombinant human VAP-1 (Amplex Red/HRP-coupled hydrogen peroxide assay, benzylamine substrate); details: read-out: Inhibitory Activity (IC50, nM) human VAP-1
T1 construct: purchased R&D systems
T1 sequence (Q16853 1-763): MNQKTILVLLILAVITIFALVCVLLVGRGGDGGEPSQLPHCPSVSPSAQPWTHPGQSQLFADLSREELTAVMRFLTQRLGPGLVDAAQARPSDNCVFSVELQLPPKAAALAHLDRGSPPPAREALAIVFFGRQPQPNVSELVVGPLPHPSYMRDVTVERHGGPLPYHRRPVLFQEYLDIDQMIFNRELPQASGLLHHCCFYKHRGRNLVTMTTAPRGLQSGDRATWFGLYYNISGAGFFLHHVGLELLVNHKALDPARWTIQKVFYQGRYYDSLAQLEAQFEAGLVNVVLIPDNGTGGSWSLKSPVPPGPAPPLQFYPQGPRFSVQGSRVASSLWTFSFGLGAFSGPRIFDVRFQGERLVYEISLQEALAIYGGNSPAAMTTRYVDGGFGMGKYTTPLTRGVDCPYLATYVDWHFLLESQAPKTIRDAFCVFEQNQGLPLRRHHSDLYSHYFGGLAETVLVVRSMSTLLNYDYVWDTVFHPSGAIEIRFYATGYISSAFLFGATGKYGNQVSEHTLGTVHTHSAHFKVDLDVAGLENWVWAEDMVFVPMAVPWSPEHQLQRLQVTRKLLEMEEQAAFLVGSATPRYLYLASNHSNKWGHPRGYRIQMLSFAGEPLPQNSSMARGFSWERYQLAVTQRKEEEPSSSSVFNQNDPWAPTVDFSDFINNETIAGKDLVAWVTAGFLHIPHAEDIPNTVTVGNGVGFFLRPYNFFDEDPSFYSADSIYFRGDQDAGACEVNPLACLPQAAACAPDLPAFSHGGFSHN
Outline: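 Recombinant human VAP-1 in 50 mM sodium phosphate pH 7.4 preincubated 30 min at 37 °C with compound (8-point 1:3 series, <1% DMSO), then 1 mM benzylamine, 200 uM Amplex Red, 1 U/mL HRP added. H2O2-derived resorufin fluorescence (ex 544/em 590) followed 1–2 h; IC50 from four-parameter fit of rate inhibition.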

[1] = biological target: T2, recombinant human MAO-A (monoamine oxidase-A) (Homo sapiens, UniProt P21397); assay: Activity evaluation on recombinant human MAO-A (Amplex Red/HRP-coupled assay, 0.5 mM tyramine substrate); details: read-out: Inhibitory Activity (IC50, nM) MAO-A
T2 construct: purchased Sigma-Aldrich
T2 sequence (P21397 1-527): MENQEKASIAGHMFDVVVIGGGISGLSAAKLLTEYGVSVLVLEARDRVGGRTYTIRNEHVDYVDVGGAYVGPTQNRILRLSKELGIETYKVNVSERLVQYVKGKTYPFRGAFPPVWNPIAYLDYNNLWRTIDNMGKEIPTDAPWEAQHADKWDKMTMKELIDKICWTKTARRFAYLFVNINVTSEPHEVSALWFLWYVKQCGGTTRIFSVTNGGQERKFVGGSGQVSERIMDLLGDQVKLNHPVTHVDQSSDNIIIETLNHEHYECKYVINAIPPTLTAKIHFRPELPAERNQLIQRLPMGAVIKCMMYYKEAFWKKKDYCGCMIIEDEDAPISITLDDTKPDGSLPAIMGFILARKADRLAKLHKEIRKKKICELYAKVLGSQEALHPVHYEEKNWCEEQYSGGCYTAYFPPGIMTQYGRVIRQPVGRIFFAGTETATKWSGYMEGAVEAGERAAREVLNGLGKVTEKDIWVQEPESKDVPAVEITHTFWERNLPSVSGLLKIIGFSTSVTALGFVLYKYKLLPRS
Outline: (§1)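 Compounds preincubated 30 min at 37 °C with enzyme in 50 mM sodium phosphate pH 7.4 (final DMSO <1%, 8-point 1:3 dilutions); reaction started with 200 uM Amplex Red, 1 U/mL HRP and substrate (MAO-A 0.5 mM tyramine, MAO-B 1 mM benzylamine, DAO 1 mM putrescine). Resorufin fluorescence (ex 544/em 590 nm) followed over 1-2 h; IC50 from four-parameter logistic fit.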

[2] = biological target: T3, recombinant human MAO-B (monoamine oxidase-B) (Homo sapiens, UniProt P27338); assay: Activity evaluation on recombinant human MAO-B (Amplex Red/HRP-coupled assay, 1 mM benzylamine substrate); details: read-out: Inhibitory Activity (IC50, nM) MAO-B
T3 construct: purchased Sigma-Aldrich
T3 sequence (P27338 1-520): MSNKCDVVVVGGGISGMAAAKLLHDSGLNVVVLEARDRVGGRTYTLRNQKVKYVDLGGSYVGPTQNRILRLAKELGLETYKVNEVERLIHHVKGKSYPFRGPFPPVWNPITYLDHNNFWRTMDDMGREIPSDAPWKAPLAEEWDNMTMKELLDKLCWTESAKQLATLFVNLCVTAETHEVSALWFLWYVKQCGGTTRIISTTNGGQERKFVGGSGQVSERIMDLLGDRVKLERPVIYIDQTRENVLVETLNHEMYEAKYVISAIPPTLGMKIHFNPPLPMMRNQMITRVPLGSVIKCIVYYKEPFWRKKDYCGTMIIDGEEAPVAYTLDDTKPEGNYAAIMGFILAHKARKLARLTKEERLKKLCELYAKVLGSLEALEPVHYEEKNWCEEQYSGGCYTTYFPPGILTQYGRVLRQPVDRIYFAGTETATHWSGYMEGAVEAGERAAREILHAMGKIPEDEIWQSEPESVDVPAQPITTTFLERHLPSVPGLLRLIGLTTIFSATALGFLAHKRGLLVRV
Outline: as §1

[3] = biological target: T4, recombinant human DAO (diamine oxidase) (Homo sapiens, UniProt P19801); assay: Activity evaluation on recombinant human DAO (Amplex Red/HRP-coupled assay, 1 mM putrescine substrate); details: read-out: Inhibitory Activity (IC50, nM) DAO
T4 construct: purchased R&D systems
T4 sequence (P19801 20-751): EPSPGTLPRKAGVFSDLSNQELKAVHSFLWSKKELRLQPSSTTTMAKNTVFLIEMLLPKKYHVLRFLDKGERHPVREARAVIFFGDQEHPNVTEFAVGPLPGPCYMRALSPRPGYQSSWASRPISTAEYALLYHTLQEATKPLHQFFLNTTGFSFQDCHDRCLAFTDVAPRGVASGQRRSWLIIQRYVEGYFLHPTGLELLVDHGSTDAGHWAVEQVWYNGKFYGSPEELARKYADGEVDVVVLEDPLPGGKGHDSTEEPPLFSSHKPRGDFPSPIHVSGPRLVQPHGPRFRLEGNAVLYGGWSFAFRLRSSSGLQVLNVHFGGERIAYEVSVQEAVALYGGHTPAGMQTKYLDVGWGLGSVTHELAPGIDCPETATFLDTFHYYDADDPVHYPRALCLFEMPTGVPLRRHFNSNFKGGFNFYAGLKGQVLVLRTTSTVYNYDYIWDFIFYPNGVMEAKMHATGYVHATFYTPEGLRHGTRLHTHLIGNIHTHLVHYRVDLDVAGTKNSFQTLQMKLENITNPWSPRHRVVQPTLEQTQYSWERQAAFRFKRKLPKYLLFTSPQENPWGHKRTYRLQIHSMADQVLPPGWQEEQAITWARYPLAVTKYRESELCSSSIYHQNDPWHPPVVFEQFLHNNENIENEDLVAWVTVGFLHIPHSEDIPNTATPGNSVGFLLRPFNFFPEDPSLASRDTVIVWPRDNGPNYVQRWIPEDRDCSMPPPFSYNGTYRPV
Outline: as §1

[4] = recombinant human VAP-1, 30 min preincubation at 37° C., 1 mM benzylamine
[5] = recombinant human VAP-1, benzylamine substrate

Structure (SMILES) | IC50 (recombinant human VAP-1; [4]) | IC50 ([1]; 0.5 mM tyramine) | IC50 ([2]; 1 mM benzylamine) | IC50 ([3]; 1 mM putrescine) | IC50 (recombinant human VAP-1; [5]) | IC50 ([1]; 0.5 mM tyramine substrate) | IC50 ([2]; 1 mM benzylamine substrate) | IC50 ([3]; 1 mM putrescine substrate)
Cc1c(-c2cnn(C(C)C)c2)cccc1-n1cnn(CC(CN)=C(F)F)c1=O [Example 262, 2-[2-(aminomethyl)-3,3-difluoro-allyl]-4-[3-(1-isopropylpyrazol-4-yl)-2-methyl-phenyl]-1,2,4-triazol-3-one Trifluoroacetate] |  |  |  |  | 7.4 nM | > 100000 nM | > 100000 nM | > 100000 nM
Cc1cc(-n2cnn(CC(CN)=C(F)F)c2=O)cnc1-c1ccc2c(c1)OCO2 [Example 79, 2-[2-(aminomethyl)-3,3-difluoro-allyl]-4-[6-(1,3-benzodioxol-5-yl)-5-methyl-3-pyridyl]-1,2,4-triazol-3-one Trifluoroacetate] | 0.9 nM | > 100000 nM | 910 nM | 200 nM |  |  |  | 
Cc1c(-c2cccc(-c3nc[nH]n3)c2)cccc1-n1cnn(CC(CN)=C(F)F)c1=O [Example 263, 2-[2-(aminomethyl)-3,3-difluoro-allyl]-4-[2-methyl-3-[3-(1H-1,2,4-triazol-3-yl)phenyl]phenyl]-1,2,4-triazol-3-one Trifluoroacetate] |  |  |  |  | 29 nM | > 100000 nM | > 100000 nM | > 100000 nM
Cc1cc(Br)ccc1-n1cnn(CC(CN)=C(F)F)c1=O [Example 6, 2-[2-(aminomethyl)-3,3-difluoro-allyl]-4-(4-bromo-2-methyl-phenyl)-1,2,4-triazol-3-one trifluoroacetate] | 9.4 nM | > 100000 nM | > 100000 nM | > 100000 nM |  |  |  | 
Cc1cc(-c2ccc3cn[nH]c3c2)cnc1-n1cnn(CC(CN)=C(F)F)c1=O [Example 233, 2-[2-(aminomethyl)-3,3-difluoro-allyl]-4-[5-(1H-indazol-6-yl)-3-methyl-2-pyridyl]-1,2,4-triazol-3-one Trifluoroacetate] |  |  |  |  | 0.2 nM | > 100000 nM | 200 nM | 36000 nM
NCC(Cn1ncn(-c2ccnc(-c3ccc(N4CCNCC4)cc3)c2)c1=O)=C(F)F [Example 62, 2-[2-(aminomethyl)-3,3-difluoro-allyl]-4-[2-(4-piperazin-1-ylphenyl)-4-pyridyl]-1,2,4-triazol-3-one Ditrifluoroacetate] | 1.5 nM | > 100000 nM | > 100000 nM | 160 nM |  |  |  | 

More lines, now with the values ahead:

IC50 (recombinant human VAP-1; [4]) | IC50 ([1]; 0.5 mM tyramine) | IC50 ([2]; 1 mM benzylamine) | IC50 ([3]; 1 mM putrescine) | IC50 (recombinant human VAP-1; [5]) | IC50 ([1]; 0.5 mM tyramine substrate) | IC50 ([2]; 1 mM benzylamine substrate) | IC50 ([3]; 1 mM putrescine substrate) | Structure (SMILES)
1.6 nM | > 100000 nM | 79600 nM | 75 nM |  |  |  |  | NCC(Cn1ncn(-c2cc(-c3ccc(C(F)(F)F)nc3)ccn2)c1=O)=C(F)F [Example 56, 2-[2-(aminomethyl)-3,3-difluoro-allyl]-4-[4-[6-(trifluoromethyl)-3-pyridyl]-2-pyridyl]-1,2,4-triazol-3-one Trifluoroacetate]
0.6 nM | > 100000 nM | 1900 nM | 2 nM |  |  |  |  | CS(=O)(=O)c1ccc(-c2cnc(-n3cnn(CC(CN)=C(F)F)c3=O)cn2)cc1 [Example 89, 2-[2-(aminomethyl)-3,3-difluoro-allyl]-4-[5-(4-methylsulfonylphenyl)-pyrazin-2-yl]-1,2,4-triazol-3-one Trifluoroacetate]
0.9 nM | > 100000 nM | 8300 nM | 490 nM |  |  |  |  | CCn1cc(-c2cc(-n3cnn(CC(CN)=C(F)F)c3=O)ccn2)cn1 [Example 67, 2-[2-(aminomethyl)-3,3-difluoro-allyl]-4-[2-(1-ethylpyrazol-4-yl)-4-pyridyl]-1,2,4-triazol-3-one Trifluoroacetate]
 |  |  |  | 0.8 nM | > 100000 nM | > 100000 nM | 130 nM | CCn1cc(-c2cccc(-n3cnn(CC(CN)=C(F)F)c3=O)n2)ccc1=O [Example 218, 5-[6-[1-[2-(aminomethyl)-3,3-difluoro-allyl]-5-oxo-1,2,4-triazol-4-yl]-2-pyridyl]-1-ethyl-pyridin-2-one Trifluoroacetate]
1.3 nM | > 100000 nM | > 100000 nM | 1710 nM |  |  |  |  | CCn1cc(-c2cccc(-n3cnn(CC(CN)=C(F)F)c3=O)n2)cn1 [Example 53, 2-[2-(aminomethyl)-3,3-difluoro-allyl]-4-[6-(1-ethylpyrazol-4-yl)-2-pyridyl]-1,2,4-triazol-3-one Trifluoroacetate]
